Reference: PMC11062899, “De novo development of small cyclic peptides that are orally bioavailable” (Nature Chemical Biology, 2023)
“And” between values parts separate entries of the source, which are not always exact repeats. Equal entries are not always repeated. Where two headings read alike, the source gives them in different places.

Experiments:
rat α-thrombin = molecular target: T1, rat α-thrombin (Rattus norvegicus, UniProt P18292); experiment: Protease inhibition, Ki for rat α-thrombin (fluorogenic substrate Z-Gly-Gly-Arg-AMC); format: biochemical; settings: for Rat alpha thrombin inhibition, slope normalized to DMSO: replicates R1-R3
T1 construct: rat α-thrombin (Molecular Innovations) were used at final concentrations of 2 nM and 3 nM; purchased Molecular Innovations
Protocol: (§1) The inhibition constants (Ki) of cyclic peptides were calculated by measuring thrombin inhibition in the presence of different concentrations of the cyclic peptides. […] Human α-thrombin (Molecular Innovations) and rat α-thrombin (Molecular Innovations) were used at final concentrations of 2 nM and 3 nM, respectively, and fluorogenic substrate (Z-Gly-Gly-Arg-AMC, Bachem) was used at a concentration of 50 μM. Enzymatic activity was determined by measuring fluorescent gain on a Tecan Infinite M200 Pro microplate reader (excitation: 360 nm, emission: 465 nm) or a PHERAstar FSX microplate reader (excitation: 380 nm, emission: 440 nm) for 30 min at 25 °C with a fluorescent readout every 3 min. The two instruments were controlled with Tecan Infinite M200 Pro instrument software (iControl, version 1.12) and PHERAstar FSX software (version 5.70, edition 8), respectively. Protease inhibition was calculated by comparing the enzymatic activity to a control without cyclic peptide.
(§2) Half maximal inhibitory concentration (IC50) values were determined using a four-parameter logistic regression model in GraphPad Prism 9 to fit sigmoidal curves to the acquired data points according to equation (2) below.2 y=b+a−b/1+10^(logIC50−x)p where a and b represent the measured inhibition maximum and minimum, respectively; x is the logarithm of peptide concentration; y is the thrombin activity compared to a control without the cyclic peptide; and p is the Hill coefficient.
(§3) Ki values were calculated using the IC50 and the Cheng–Prusoff equation (equation (3)).3 Ki=IC50/1+S0/Km where Km is the Michaelis–Menten constant of the enzyme for the substrate used in the assay, and [S]0 is the initial substrate concentration.

human α-thrombin = human α-thrombin (Homo sapiens, UniProt P00734); experiment: Protease inhibition, Ki for human α-thrombin (fluorogenic substrate Z-Gly-Gly-Arg-AMC); format: biochemical; settings: for Human alpha thrombin inhibition, slope normalized to DMSO: replicates R1-R3
Protocol: as §1, §2, §3

[1] = Passive artificial membrane permeability (PAMPA);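 on Permeability% Average: top well sample relative to theoretical equilibrium sample by TIC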
[2] = peptide concentration 1.00E+02 uM
[3] = peptide concentration 1.19E-05 uM
[4] = peptide concentration 1.22E-02 uM
[5] = peptide concentration 1.25E+01 uM
[6] = peptide concentration 1.53E-03 uM
[7] = peptide concentration 1.56E+00 uM
[8] = peptide concentration 1.91E-04 uM
[9] = peptide concentration 1.95E-01 uM
[10] = peptide concentration 2.38E-05 uM
[11] = peptide concentration 2.44E-02 uM
[12] = peptide concentration 2.50E+01 uM
[13] = peptide concentration 3.05E-03 uM
[14] = peptide concentration 3.12E+00 uM
[15] = peptide concentration 3.81E-04 uM
[16] = peptide concentration 3.91E-01 uM
[17] = peptide concentration 4.77E-05 uM
[18] = peptide concentration 4.88E-02 uM
[19] = peptide concentration 5.00E+01 uM
[20] = peptide concentration 6.10E-03 uM
[21] = peptide concentration 6.25E+00 uM
[22] = peptide concentration 7.63E-04 uM
[23] = peptide concentration 7.81E-01 uM
[24] = peptide concentration 9.54E-05 uM
[25] = peptide concentration 9.77E-02 uM

Ki (rat α-thrombin; average of R1-R3, read-out: Rat alpha thrombin inhibition, Ki Average): 252 nM
Rat alpha thrombin inhibition, slope normalized to DMSO (rat α-thrombin; [2]): 7.5 and 5.2 and 7.4
Rat alpha thrombin inhibition, slope normalized to DMSO (rat α-thrombin; [3]): 101.0 and 99.4 and 101.8
Rat alpha thrombin inhibition, slope normalized to DMSO (rat α-thrombin; [4]): 100.6 and 96.9 and 105.9
Rat alpha thrombin inhibition, slope normalized to DMSO (rat α-thrombin; [5]): 11.6 and 13.6 and 8.8
Rat alpha thrombin inhibition, slope normalized to DMSO (rat α-thrombin; [6]): 110.9 and 102.8 and 91.9
Rat alpha thrombin inhibition, slope normalized to DMSO (rat α-thrombin; [7]): 29.5 and 31.9 and 33.8
Rat alpha thrombin inhibition, slope normalized to DMSO (rat α-thrombin; [8]): 101.7 (2×) and 104.1
Rat alpha thrombin inhibition, slope normalized to DMSO (rat α-thrombin; [9]): 57.9 and 68.0 and 74.9
Rat alpha thrombin inhibition, slope normalized to DMSO (rat α-thrombin; [10]): 95.3 and 93.1 and 98.0
Rat alpha thrombin inhibition, slope normalized to DMSO (rat α-thrombin; [11]): 87.6 and 90.4 and 103.1
Rat alpha thrombin inhibition, slope normalized to DMSO (rat α-thrombin; [12]): 10.8 and 13.8 and 2.6
Rat alpha thrombin inhibition, slope normalized to DMSO (rat α-thrombin; [13]): 84.4 and 99.6 and 89.5
Rat alpha thrombin inhibition, slope normalized to DMSO (rat α-thrombin; [14]): 19.8 and 21.4 and 23.1
Rat alpha thrombin inhibition, slope normalized to DMSO (rat α-thrombin; [15]): 100.0 and 99.2 and 101.2
Rat alpha thrombin inhibition, slope normalized to DMSO (rat α-thrombin; [16]): 59.7 and 45.3 and 63.3
Rat alpha thrombin inhibition, slope normalized to DMSO (rat α-thrombin; [17]): 96.9 and 93.8 and 94.4
Rat alpha thrombin inhibition, slope normalized to DMSO (rat α-thrombin; [18]): 85.6 and 100.2 and 83.3
Rat alpha thrombin inhibition, slope normalized to DMSO (rat α-thrombin; [19]): 7.6 and 10.7 and 9.3
Rat alpha thrombin inhibition, slope normalized to DMSO (rat α-thrombin; [20]): 100.9 and 96.3 and 102.1
Rat alpha thrombin inhibition, slope normalized to DMSO (rat α-thrombin; [21]): 12.6 and 18.3 and 16.4
Rat alpha thrombin inhibition, slope normalized to DMSO (rat α-thrombin; [22]): 96.9 and 104.7 and 92.6
Rat alpha thrombin inhibition, slope normalized to DMSO (rat α-thrombin; [23]): 48.7 and 32.2 and 42.2
Rat alpha thrombin inhibition, slope normalized to DMSO (rat α-thrombin; [24]): 95.8 and 96.9 and 102.0
Rat alpha thrombin inhibition, slope normalized to DMSO (rat α-thrombin; [25]): 78.0 and 74.1 and 90.2
IC50 (rat α-thrombin; single replicates R1-R3, read-out: Rat alpha thrombin inhibition, IC50): 451 nM and 308 nM and 605 nM
Ki (human α-thrombin; average of R1-R3, read-out: Human alpha thrombin inhibition, Ki Average): 1160 nM
Human alpha thrombin inhibition, slope normalized to DMSO (human α-thrombin; [2]): 21.2 and 22.5 and 13.5
Human alpha thrombin inhibition, slope normalized to DMSO (human α-thrombin; [3]): 107.9 and 108.1 and 100.7
Human alpha thrombin inhibition, slope normalized to DMSO (human α-thrombin; [4]): 45.0 and 106.0 and 79.1
Human alpha thrombin inhibition, slope normalized to DMSO (human α-thrombin; [5]): 20.5 and 29.2 and 28.2
Human alpha thrombin inhibition, slope normalized to DMSO (human α-thrombin; [6]): 70.8 and 98.2 and 101.6
Human alpha thrombin inhibition, slope normalized to DMSO (human α-thrombin; [7]): 57.8 and 72.9 and 62.5
Human alpha thrombin inhibition, slope normalized to DMSO (human α-thrombin; [8]): 100.2 and 106.6 and 100.4
Human alpha thrombin inhibition, slope normalized to DMSO (human α-thrombin; [9]): 100.6 and 90.9 and 89.3
Human alpha thrombin inhibition, slope normalized to DMSO (human α-thrombin; [10]): 109.7 and 103.6 and 106.2
Human alpha thrombin inhibition, slope normalized to DMSO (human α-thrombin; [11]): 86.3 and 104.2 and 79.8
Human alpha thrombin inhibition, slope normalized to DMSO (human α-thrombin; [12]): 13.8 and 27.1 and 20.7
Human alpha thrombin inhibition, slope normalized to DMSO (human α-thrombin; [13]): 101.3 and 97.0 and 101.4
Human alpha thrombin inhibition, slope normalized to DMSO (human α-thrombin; [14]): 19.7 and 40.6 and 23.4
Human alpha thrombin inhibition, slope normalized to DMSO (human α-thrombin; [15]): 71.5 and 115.8 and 100.2
Human alpha thrombin inhibition, slope normalized to DMSO (human α-thrombin; [16]): 64.9 and 85.6 and 86.8
Human alpha thrombin inhibition, slope normalized to DMSO (human α-thrombin; [17]): 107.4 and 99.0 and 99.6
Human alpha thrombin inhibition, slope normalized to DMSO (human α-thrombin; [18]): 103.0 and 102.1 and 95.7
Human alpha thrombin inhibition, slope normalized to DMSO (human α-thrombin; [19]): 20.6 and 21.0 and 15.4
Human alpha thrombin inhibition, slope normalized to DMSO (human α-thrombin; [20]): 86.7 and 105.1 and 95.4
Human alpha thrombin inhibition, slope normalized to DMSO (human α-thrombin; [21]): 41.3 and 33.5 and 28.3
Human alpha thrombin inhibition, slope normalized to DMSO (human α-thrombin; [22]): 100.0 and 108.8 and 108.6
Human alpha thrombin inhibition, slope normalized to DMSO (human α-thrombin; [23]): 74.4 and 82.4 and 81.1
Human alpha thrombin inhibition, slope normalized to DMSO (human α-thrombin; [24]): 104.7 and 102.3 and 88.7
Human alpha thrombin inhibition, slope normalized to DMSO (human α-thrombin; [25]): 98.8 and 95.6 and 95.8
IC50 (human α-thrombin; single replicates R1-R3, read-out: Human alpha thrombin inhibition, IC50): 1300 nM and 1670 nM and 1530 nM
PAMPA permeability: % permeability ([1]; 50 μM, 12–18 h, acceptor concentration relative to equilibrium): 48 ± 19%
Permeability% (single replicates R1–R3) ([1]; 50 μM, 13 h (Fig. 5d)): 26.09% and 53.35% and 63.35%
Permeability% Average ([1]; 50 μM, 13 h (Fig. 5d)): 47.6%
Papp at 50 μM ([1]; PAMPA, pH 7.4): 5.62 ×10⁻⁶ cm/s
Compound: O=C1C[C@H]2CCCN2C(=O)[C@H](Cc2ccccc2)NC(=O)[C@@H](NC(=O)c2ccc(Cl)s2)CCCC=CCCCCN1 [compound 44]
Ki (rat α-thrombin; single replicates R1-R3, read-out: Rat alpha thrombin inhibition, Ki): 250 nM (2×) and 171 nM (2×) and 335 nM (2×)
Ki (human α-thrombin; single replicates R1-R3, read-out: Human alpha thrombin inhibition, Ki): 1 µM (2×) and 1.29 µM (2×) and 1.18 µM (2×)
